Non-standard residues stand in square brackets, D forms with d. No end group written: not given here. βAla = NCCC(=O)O
Assays:
[1] = target: T1, soluble human FcRn (shFcRn) (Homo sapiens, UniProt P55899); format: binding; conditions: IgG competition ELISA, 3 nM human IgG, buffer pH 6
T1 construct: made in house; host or cells: Chinese hamster ovary (CHO) cells, glutamine synthetase expression system
Procedure: A solution of soluble human FcRn (shFcRn) in Tris buffer was dialyzed twice, each time for 3 hours in 2 liters of PBS, pH 8.0. The quantity of recovered shFcRn was determined by measuring the absorbance at 280 nm. […] Biotinylation of shFcRn was accomplished by treating the dialyzed shFcRn with a 2-fold-molar excess of Sulfo-NHS-LC-Biotin (Invitrogen, Carlsbad, Calif.) for 2 hours at 4° C. Afterwards, the shFcRn-Sulfo-NHS-LC-Biotin reaction mixture was dialyzed twice in 2 L of cold PBS, followed by another absorbance reading to determine the concentration of the remaining protein. The biotinylated shFcRn was stored at 4° C. with 0.1% sodium azide until needed.
The wells were coated with 100 μl/well of 1 μg/ml biotinylated-shFcRn in Buffer A. The plate was sealed and incubated at 37° C. for 2 hours. Afterwards, the plate was washed with 200 μl/well of Buffer B (Buffer B: 100 mM MES pH 6, 150 mM NaCl, 0.5% BSA IgG-free (Jackson ImmunoResearch, West Grove, Pa.), 0.05% Tween-20). Then, 50 μl/well of 6 nM human IgG (Calbiochem, San Diego, Calif.) in Buffer B as well as 50 μl/well of the various peptide competitors (at various concentration) were added, so that the final concentration of IgG in the well was 3 nM. […] Once color developed, 100 μl/well of TMB stop solution (KPL, Gaithersburg, Md.) was added and the absorbance was measured at 450 nm.

soluble human FcRn = target: T2, soluble human FcRn (Homo sapiens, UniProt P55899); experiment: Equilibrium binding constants (KD) by surface plasmon resonance (Biacore); conditions: pH 6
T2 construct: made in house; host or cells: Chinese hamster ovary (CHO) cells, glutamine synthetase expression system
Procedure: The following steps were performed to cross-link soluble human or cynomolgus FcRn to the dextran surface of a CM5 sensor chip (Biacore AB, Uppsala, Sweden) by an amine coupling reaction involving 1-ethyl-(3-dimethylaminopropyl)-carbodiimide hydrochloride (EDC) (Biacore AB, Uppsala, Sweden) and N-hydroxysuccinimide (NHS) (Biacore AB, Uppsala, Sweden) as recommended by Biacore (BIAapplications Handbook, version AB, section 4.2, Biacore AB, Uppsala, Sweden). The FcRn protein was diluted in 50 mM sodium acetate, pH 4.5 (Biacore AB, Uppsala, Sweden) to a concentration of 10 to 30 μg/ml and used to coat one flow cell on the sensor chip. Residual sites on the FcRn flow cell were blocked with 1 M ethanolamine hydrochloride pH 8.5 (Biacore AB, Uppsala, Sweden). A control flow cell was blocked with ethanolamine for reference subtraction. For analysis of the monomeric peptides, FcRn was coated to a final density of 4000-5000 response units (RU). For analysis of the peptide dimers, FcRn was coated to a density of 2000-2500 RU. […]
Ten 2-fold dilutions of the peptide were injected over the FcRn-CM5 chip at a rate of 20 μl/min for 2 min. […] Sensorgrams were generated and analyzed using BiaEval software version 3.1 (Biacore AB, Uppsala, Sweden). […]
Sensorgrams were generated and analyzed using BiaEval software version 3.1 (Biacore AB, Uppsala, Sweden). […]

T1 sequence (P61769 21-119): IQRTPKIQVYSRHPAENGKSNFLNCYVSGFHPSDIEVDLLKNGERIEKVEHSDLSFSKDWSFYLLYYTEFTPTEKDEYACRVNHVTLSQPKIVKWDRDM
T1 sequence (P55899 24-297): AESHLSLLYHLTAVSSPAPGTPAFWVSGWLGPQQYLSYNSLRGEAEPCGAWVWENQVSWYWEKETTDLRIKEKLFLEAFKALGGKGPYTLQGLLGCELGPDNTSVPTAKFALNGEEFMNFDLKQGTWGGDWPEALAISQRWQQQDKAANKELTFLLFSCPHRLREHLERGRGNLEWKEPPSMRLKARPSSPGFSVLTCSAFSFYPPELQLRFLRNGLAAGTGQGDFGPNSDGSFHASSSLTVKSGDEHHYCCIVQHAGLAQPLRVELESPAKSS
T2 sequence (P55899 24-297): as above
T2 sequence (P61769 21-119, further chain): as the sequence (P61769 21-119) above

**Q.** How did the IC50 [1] turn out when “QRFCGHF[βAla]LYPCNGP (cysteine pairing not given here) [Peptide No. 25]” was run?
**A.** The IC50 was greater than 125 µM.

**Q.** What about the Kd (soluble human FcRn) of the same substance?
**A.** The Kd was greater than 250 µM.

From patent US8906844B2 (SYNTONIX PHARMACEUTICALS, dated 2014)
